Laboratory results taken from article PMC11076983, “Baicalin and baicalein from Scutellaria baicalensis Georgi alleviate aberrant neuronal suppression mediated by GABA from reactive astrocytes” (CNS Neuroscience & Therapeutics, 2024).
Where two headings read alike, the source gives them in different places.

Target: T1, monoamine oxidase B (MAO-B) (Homo sapiens, UniProt P27338)
T1 construct: gene MAOB; Human recombinant MAO-B (Sigma, M7441)
T1 sequence (P27338 2-520): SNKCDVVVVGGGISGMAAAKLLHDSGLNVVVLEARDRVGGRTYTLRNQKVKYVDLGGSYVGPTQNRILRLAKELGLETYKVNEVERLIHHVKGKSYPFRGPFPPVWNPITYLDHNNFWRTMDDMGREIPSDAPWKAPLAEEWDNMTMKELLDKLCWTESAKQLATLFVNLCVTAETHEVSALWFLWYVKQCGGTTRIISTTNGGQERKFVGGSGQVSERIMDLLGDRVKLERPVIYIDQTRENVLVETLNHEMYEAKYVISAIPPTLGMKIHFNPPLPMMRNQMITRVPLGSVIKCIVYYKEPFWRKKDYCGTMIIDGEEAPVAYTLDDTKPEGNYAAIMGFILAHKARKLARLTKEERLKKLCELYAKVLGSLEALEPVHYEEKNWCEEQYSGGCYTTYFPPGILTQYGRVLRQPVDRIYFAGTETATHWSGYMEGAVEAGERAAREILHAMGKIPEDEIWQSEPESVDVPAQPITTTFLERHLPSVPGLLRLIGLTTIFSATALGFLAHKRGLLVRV
Test: in vitro MAO-B enzyme activity assay with recombinant human enzyme
Assay type: biochemical

Compound | IC50 (read-out: IC50) [µM] | IC50 [µM]
O=C(O)[C@H]1O[C@@H](Oc2cc3oc(-c4ccccc4)cc(=O)c3c(O)c2O)[C@H](O)[C@@H](O)[C@@H]1O [baicalin] | 6.26 | –
COc1c(O)cc(O)c2c(=O)cc(-c3ccccc3)oc12 [wogonin] | – | 79.2
O=c1cc(-c2ccccc2)oc2cc(O)c(O)c(O)c12 [baicalein] | – | 21
